Data on eight compounds can be found in patent publication US20250171423A1, “PHARMACEUTICAL COMPOUNDS FOR THE TREATMENT OF COMPLEMENT MEDIATED DISORDERS” (Achillion Pharmaceuticals, Inc., priority 2020, published 2025).

Each structure is given as a SMILES string. Read-outs that look alike come from different tables or passages of the source.

The conditions of data set [1]: rcm bond, DCM.
Data set [2] concerns the target T1, Human complement C1s enzyme (Homo sapiens, UniProt P09871).
T1 construct: purified from human serum, Complement Technology, Inc; purchased Complement Technology, Inc; host or cells: human serum
T1 sequence (P09871 438-688 limits assumed): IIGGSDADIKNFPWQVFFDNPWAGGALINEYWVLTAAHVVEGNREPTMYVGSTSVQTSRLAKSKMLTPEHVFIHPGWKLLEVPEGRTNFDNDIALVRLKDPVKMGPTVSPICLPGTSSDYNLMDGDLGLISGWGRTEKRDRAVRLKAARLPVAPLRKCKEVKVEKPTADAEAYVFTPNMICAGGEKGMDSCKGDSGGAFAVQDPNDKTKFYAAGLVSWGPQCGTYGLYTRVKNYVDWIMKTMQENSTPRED
T1 sequence (P09871 16-437 partner limits assumed): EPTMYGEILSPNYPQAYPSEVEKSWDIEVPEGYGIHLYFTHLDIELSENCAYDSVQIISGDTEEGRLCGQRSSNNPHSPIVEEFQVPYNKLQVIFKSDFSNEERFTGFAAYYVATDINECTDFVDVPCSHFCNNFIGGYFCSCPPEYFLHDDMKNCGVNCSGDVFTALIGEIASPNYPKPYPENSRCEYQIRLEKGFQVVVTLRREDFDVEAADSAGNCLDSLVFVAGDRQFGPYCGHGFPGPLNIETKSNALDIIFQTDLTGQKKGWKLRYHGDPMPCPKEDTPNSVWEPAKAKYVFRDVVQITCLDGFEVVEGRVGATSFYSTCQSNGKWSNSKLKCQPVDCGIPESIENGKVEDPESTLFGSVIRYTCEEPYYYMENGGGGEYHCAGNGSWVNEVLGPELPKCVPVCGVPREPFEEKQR
Nature of the data set: Human C1s Enzyme Assay. In kind it is biochemical. The note with it: human C1s 1.16 nM, 5 min preincubation, substrate Z-L-Lys-SBzl 100 μM, A405; read-out: C1s Protease Activity. The method in brief:
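C1s purified from human serum (1.16 nM final) was preincubated with compound for 5 min at room temperature in 50 mM Tris, 1 M NaCl, pH 7.5. Z-L-Lys-SBzl and DTNB were then added at 100 μM each, and A405 was followed for 30 min. IC50 came from nonlinear regression of reaction rates.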

The compound `O=C1NCC(=O)N2[C@H]3C[C@@]3(COCCCC=CCCCCC/C=C\c3cc1ccc3Oc1ccc(F)cc1)C[C@H]2C(=O)OCc1ccccc1` showed a ring closure, yield of all isomers in data set [1] (from C=CCCCCC/C=C\c1cc(C(=O)NCC(=O)N2[C@H]3C[C@@]3(COCCCC=C)C[C@H]2C(=O)OCc2ccccc2)ccc1Oc1ccc(F)cc1, Grubbs 1st generation catalyst, 1.76 mM, 25.0 °C, 48.0 h) of 7.8%.

For the compound `CCOC(=O)[C@@H]1C[C@@]23COCCC/C=C/CCCCCCCCC(=O)N[C@@H](CCOc4ccccc4)C(=O)NCC(=O)N1[C@H]2C3`, the ring closure, yield of all isomers in data set [1] (from C=CCCCCCCCCC(=O)N[C@@H](CCOc1ccccc1)C(=O)NCC(=O)N1[C@H]2C[C@@]2(COCCCC=C)C[C@H]1C(=O)OCC, Grubbs 1st catalyst, 15.3 mM, 28.0 °C, 16.0 h) turned out to be 38.8%.

The compound `O=C1CCCCCCCC/C=C/CCCOC[C@@]23C[C@@H]2N(C(=O)CNC(=O)[C@H](CCOc2ccccc2)N1)[C@H](C(=O)OCc1ccccc1)C3` showed a ring closure, yield of all isomers in data set [1] (from C=CCCCCCCCCC(=O)N[C@@H](CCOc1ccccc1)C(=O)NCC(=O)N1[C@H]2C[C@@]2(COCCCC=C)C[C@H]1C(=O)OCc1ccccc1, Grubbs 1st catalyst, 14.0 mM, 28.0 °C, 16.0 h) of 43.4%.

Take `N=C(N)c1csc(CNC(=O)[C@@H]2C[C@H](c3ccccc3)CN2C(=O)CNC(=O)CCCOc2ccccc2)c1` [Compound 157, (2S,4R)-N-((4-carbamimidoylthiophen-2-yl)methyl)-1-((4-phenoxybutanoyl)glycyl)-4-phenylpyrrolidine-2-carboxamide]: in data set [2], the IC50 was less than 100 nM.

Turning to `N=C(N)c1csc(CNC(=O)[C@@H]2C[C@]3(CO)C[C@@H]3N2C(=O)CNC(=O)c2ccc(Oc3ccccc3)cc2)c1` [Compound 9, (1S,3S,5R)-N-((4-carbamimidoylthiophen-2-yl)methyl)-5-(hydroxymethyl)-2-((4-phenoxybenzoyl)glycyl)-2-azabicyclo[3.1.0]hexane-3-carboxamide], the IC50 in data set [2] was less than 100 nM.

For `N=C(N)c1csc(CNC(=O)[C@@H]2C[C@H](C3CCCC3)CN2C(=O)CNC(=O)c2ccc(Oc3ccccc3)cc2)c1` [Compound 260, (2S,4R)-N-((4-carbamimidoylthiophen-2-yl)methyl)-4-cyclopentyl-1-((4-phenoxybenzoyl)glycyl) pyrrolidine-2-carboxamide], in data set [2], the IC50 was less than 100 nM.

As for `C[C@@]12C[C@@H]1N(C(=O)CNC(=O)c1ccc(Oc3ccccc3)cc1)[C@H](C(=O)NCc1cc(-c3noc(=O)[nH]3)cs1)C2` [Compound 34, (1S,3S,5S)-5-methyl-N-((4-(5-oxo-4,5-dihydro-1,2,4-oxadiazol-3-yl)thiophen-2-yl)methyl)-2-((4-phenoxybenzoyl)glycyl)-2-azabicyclo[3.1.0]hexane-3-carboxamide], the IC50 in data set [2] was more than 1000 nM.

For `C[C@H](O)[C@H](O)[C@@H](O)[C@@H](O)CNCC(=O)N1[C@H]2C[C@@]2(C)C[C@H]1C(=O)NCc1nc(C(=N)N)cs1` [Compound 78, (1S,3S,5S)-N-((4-carbamimidoylthiazol-2-yl)methyl)-5-methyl-2-(((2S,3S,4S,5S)-2,3,4,5-tetrahydroxyhexyl)glycyl)-2-azabicyclo[3.1.0]hexane-3-carboxamide], the IC50 in data set [2] is more than 1000 nM.
